Data reported in US12162820B2 (TAIWANJ PHARMACEUTICALS CO., LTD., priority 2019, dated 2024).

Columns and labels:
Type in all cases: biochemical
HDAC3 = target: T1, HDAC3 (Homo sapiens, UniProt O15379); assay: HDAC Inhibition Screening Assay (FLUOR DE LYS Fluorimetric Drug Discovery Kit), HDAC3; conditions: for inhibition at 2 µM: 2 μM compound; for inhibition at 10 µM: 10 μM compound; for inhibition at 50 µM: 50 μM compound
T1 construct: purchased Enzo Life Sciences
In short: (§1)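 Recombinant HDAC1, HDAC2 or HDAC3 was incubated with an acetyl-lysine fluorogenic substrate, and a developer was then added to release the fluorophore. Compounds were tested at 2, 10 and 50 μM, with fluorescence read at 360 or 485 nm excitation and 460 or 530 nm emission. Activity was expressed as a percentage of basal control minus baseline.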

HDAC1 = target: T2, HDAC1 (Homo sapiens, UniProt Q13547); assay: HDAC Inhibition Screening Assay (FLUOR DE LYS Fluorimetric Drug Discovery Kit), HDAC1; conditions: for inhibition at 2 µM: 2 μM compound; for inhibition at 10 µM: 10 μM compound; for inhibition at 50 µM: 50 μM compound
T2 construct: purchased Enzo Life Sciences
In short: as §1

ATX (autotaxin) = target: T3, ATX (autotaxin) (Homo sapiens, UniProt Q13822); assay: Autotaxin Inhibition Screening Assay (choline release from LPC, LPC-CR); conditions: for inhibition at 4 µM: 4 μM compound; for inhibition at 20 µM: 20 μM compound; for inhibition at 50 µM: 50 μM compound
T3 construct: purchased Cayman 10803
In short: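 Released choline from 100 μM 14:0 LPC, detected via choline oxidase–HRP–homovanillic acid fluorescence (320/450 nm) kinetically over 90 min, reports activity of 20 ng ATX. Buffer: 50 mM Tris pH 8.0, 50 mM CaCl2, 0.01% Triton X-100; test compounds 4, 20, 50 μM; percent inhibition from blank-subtracted slopes relative to vehicle.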

HDAC2 = target: T4, HDAC2 (Homo sapiens, UniProt Q92769); assay: HDAC Inhibition Screening Assay (FLUOR DE LYS Fluorimetric Drug Discovery Kit), HDAC2; conditions: for inhibition at 2 µM: 2 μM compound; for inhibition at 10 µM: 10 μM compound; for inhibition at 50 µM: 50 μM compound
T4 construct: purchased Enzo Life Sciences
In short: as §1

T1 sequence (O15379 whole entry): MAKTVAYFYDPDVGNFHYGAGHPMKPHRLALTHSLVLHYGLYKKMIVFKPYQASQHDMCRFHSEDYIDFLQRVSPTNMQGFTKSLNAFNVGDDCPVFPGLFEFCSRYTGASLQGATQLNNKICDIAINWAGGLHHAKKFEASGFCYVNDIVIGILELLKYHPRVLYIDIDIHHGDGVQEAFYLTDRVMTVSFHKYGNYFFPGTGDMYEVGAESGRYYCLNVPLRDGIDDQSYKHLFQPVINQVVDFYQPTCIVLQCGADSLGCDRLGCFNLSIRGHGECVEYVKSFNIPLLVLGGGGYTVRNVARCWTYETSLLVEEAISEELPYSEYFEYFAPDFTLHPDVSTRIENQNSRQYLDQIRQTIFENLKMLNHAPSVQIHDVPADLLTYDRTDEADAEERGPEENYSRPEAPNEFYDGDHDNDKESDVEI
T1 sequence (O75376 395-489 partner limits assumed): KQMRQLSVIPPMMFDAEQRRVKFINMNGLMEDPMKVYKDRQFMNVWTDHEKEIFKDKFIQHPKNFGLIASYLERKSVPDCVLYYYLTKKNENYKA
T2 sequence (Q13547 whole entry): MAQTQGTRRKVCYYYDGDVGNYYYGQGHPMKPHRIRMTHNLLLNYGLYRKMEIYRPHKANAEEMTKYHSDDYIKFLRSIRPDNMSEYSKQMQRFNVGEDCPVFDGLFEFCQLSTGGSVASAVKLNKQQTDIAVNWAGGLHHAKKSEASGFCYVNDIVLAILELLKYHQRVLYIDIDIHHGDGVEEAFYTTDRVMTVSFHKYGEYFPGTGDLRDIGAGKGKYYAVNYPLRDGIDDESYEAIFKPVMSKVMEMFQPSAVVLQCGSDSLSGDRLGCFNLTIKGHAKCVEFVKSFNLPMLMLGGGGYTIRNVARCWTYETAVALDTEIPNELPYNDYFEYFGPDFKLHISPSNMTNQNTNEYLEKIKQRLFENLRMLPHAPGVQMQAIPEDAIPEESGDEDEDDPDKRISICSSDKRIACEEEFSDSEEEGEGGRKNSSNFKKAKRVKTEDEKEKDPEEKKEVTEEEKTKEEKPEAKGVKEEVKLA
T4 sequence (Q92769 whole entry): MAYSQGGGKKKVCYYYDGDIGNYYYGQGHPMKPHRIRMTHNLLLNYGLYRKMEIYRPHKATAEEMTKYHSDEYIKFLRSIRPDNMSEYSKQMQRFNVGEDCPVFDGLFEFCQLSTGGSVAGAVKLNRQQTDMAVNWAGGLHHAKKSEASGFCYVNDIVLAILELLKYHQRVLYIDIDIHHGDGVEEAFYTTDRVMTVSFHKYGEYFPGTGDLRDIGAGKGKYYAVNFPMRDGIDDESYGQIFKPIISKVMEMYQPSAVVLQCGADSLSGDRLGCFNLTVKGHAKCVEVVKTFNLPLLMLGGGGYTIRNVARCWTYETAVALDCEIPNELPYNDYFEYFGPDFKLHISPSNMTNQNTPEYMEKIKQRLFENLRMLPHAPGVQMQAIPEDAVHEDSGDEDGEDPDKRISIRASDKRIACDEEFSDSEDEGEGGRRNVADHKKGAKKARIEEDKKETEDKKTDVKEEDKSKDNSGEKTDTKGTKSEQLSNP

Row | SMILES | inhibition at 2 µM (HDAC3) | inhibition at 10 µM (HDAC3) | inhibition at 50 µM (HDAC3) | inhibition at 2 µM (HDAC1) | inhibition at 10 µM (HDAC1) | inhibition at 50 µM (HDAC1) | inhibition at 4 µM (ATX (autotaxin)) | inhibition at 20 µM (ATX (autotaxin)) | inhibition at 50 µM (ATX (autotaxin)) | inhibition at 2 µM (HDAC2) | inhibition at 10 µM (HDAC2) | inhibition at 50 µM (HDAC2)
1 | COc1ccc(C(=O)NC2CCc3cc(/C=C/C(=O)NO)ccc32)cc1 (stereo not drawn) [Compound 25, (E)-N-(5-(3-(hydroxyamino)-3-oxoprop-1-en-1-yl)-2,3-dihydro-1H-inden-1-yl)-4-methoxybenz amide] | > 80% | > 80% | > 80% | > 80% | > 80% | > 80% | < 50% | < 50% | < 50% | > 80% | > 80% | > 80%
2 | CCN(CC)c1ccc(C(=O)NC2CCc3cc(/C=C/C(=O)NO)ccc32)cc1 (stereo not drawn) [Compound 28, (E)-4-(diethylamino)-N-(5-(3-(hydroxyamino)-3-oxoprop-1-en-1-yl)-2,3-dihydro-1H-inden-1-yl)benzamide] | > 80% | > 80% | > 80% | > 80% | > 80% | > 80% | < 50% | < 50% | < 50% | > 80% | > 80% | > 80%
3 | Nc1cc(F)ccc1NC(=O)/C=C/c1ccc2c(c1)CCCC2OCc1cc(C(F)(F)F)cc(C(F)(F)F)c1 (stereo not drawn) [Compound 35, (E)-N-(2-amino-4-fluorophenyl)-3-(5-((3,5-bis(trifluoromethyl)benzyl)oxy)-5,6,7,8-tetrahydronaphthalen-2-yl)acrylamide] | < 50% | < 50% | 50 to 80% | < 50% | < 50% | < 50% | < 50% | < 50% | < 50% | < 50% | < 50% | < 50%
4 | O=C(CCCCCN(CC(=O)NC1CCc2ccccc21)CC(=O)NC1CCc2ccccc21)NO (stereo not drawn) [Compound 45, 2,2′-((6-(hydroxyamino)-6-oxohexyl)azanediyl)bis(N-(2,3-dihydro-1H-inden-1-yl)acetamide)] | > 80% | > 80% | > 80% | > 80% | > 80% | > 80% | < 50% | < 50% | < 50% | > 80% | > 80% | > 80%
5 | O=C(CCCCC(=O)Nc1ccc2c(c1)CC/C(=C\c1cc(C(F)(F)F)cc(C(F)(F)F)c1)C2=O)NO [Compound 14, (E)-N1-(6-(3,5-bis(trifluoromethyl)benzylidene)-5-oxo-5,6,7,8-tetrahydronaphthalen-2-yl)-N6-hydroxyadipamide] | < 50% | < 50% | > 80% | < 50% | 50 to 80% | > 80% | > 80% | > 80% | > 80% | < 50% | 50 to 80% | > 80%
6 | Nc1cc(F)ccc1NC(=O)CCCCCC(=O)Nc1ccc2c(c1)CC/C(=C\c1cc(C(F)(F)F)cc(C(F)(F)F)c1)C2=O [Compound 11, (E)-N1-(2-amino-4-fluorophenyl)-N7-(6-(3,5-bis(trifluoromethyl)benzylidene)-5-oxo-5,6,7,8-tetrahydronaphthalen-2-yl)heptanediamide] | < 50% | < 50% | < 50% | < 50% | < 50% | < 50% | > 80% | > 80% | > 80% | < 50% | < 50% | < 50%

Continued, values first:

Row | inhibition at 2 µM (HDAC3) | inhibition at 10 µM (HDAC3) | inhibition at 50 µM (HDAC3) | inhibition at 2 µM (HDAC1) | inhibition at 10 µM (HDAC1) | inhibition at 50 µM (HDAC1) | inhibition at 4 µM (ATX (autotaxin)) | inhibition at 20 µM (ATX (autotaxin)) | inhibition at 50 µM (ATX (autotaxin)) | inhibition at 2 µM (HDAC2) | inhibition at 10 µM (HDAC2) | inhibition at 50 µM (HDAC2) | SMILES
7 | < 50% | < 50% | < 50% | < 50% | < 50% | < 50% | < 50% | < 50% | 50 to 80% | < 50% | < 50% | < 50% | Nc1cc(F)ccc1NC(=O)CCCCNC(=O)c1ccc2c(c1)CC/C(=C\c1cc(C(F)(F)F)cc(C(F)(F)F)c1)C2=O [Compound 80]
8 | < 50% | < 50% | < 50% | < 50% | < 50% | < 50% | < 50% | < 50% | < 50% | < 50% | < 50% | 50 to 80% | Nc1cc(F)ccc1NC(=O)/C=C/c1ccc(COc2ccc3c(c2)CCCC3=O)cc1 [Compound 69, (E)-N-(2-amino-4-fluorophenyl)-3-(4-(((5-oxo-5,6,7,8-tetra-hydronaphthalen-2-yl)oxy)methyl)phenyl)acrylamide]
9 | 50 to 80% | > 80% | > 80% | 50 to 80% | > 80% | > 80% | < 50% | < 50% | < 50% | > 80% | > 80% | > 80% | Cc1[nH]c2ccccc2c1CCNC1CCCc2cc(/C=C/C(=O)Nc3ccc(F)cc3N)ccc21 (stereo not drawn) [Compound 62, (E)-N-(2-amino-4-fluorophenyl)-3-(5-((2-(2-methyl-1H-indol-3-yl)ethyl)amino)-5,6,7,8-tetrahydronaphthalen-2-yl)acrylamide]
10 | 50 to 80% | 50 to 80% | > 80% | < 50% | < 50% | < 50% | < 50% | < 50% | < 50% | < 50% | 50 to 80% | 50 to 80% | COc1ccc2c(c1)CCCC2NC(=O)CCCCCCC(=O)Nc1ccc(F)cc1N (stereo not drawn) [Compound 47, N1-(2-amino-4-fluorophenyl)-N8-(6-methoxy-1,2,3,4-tetrahydronaphthalen-1-yl)octanediamide]
11 | < 50% | < 50% | < 50% | < 50% | < 50% | < 50% | < 50% | < 50% | < 50% | < 50% | < 50% | < 50% | O=C(/C=C/c1ccc(COc2ccc3c(c2)CCC(Cc2cc(C(F)(F)F)cc(C(F)(F)F)c2)C3=O)cc1)NO (stereo not drawn) [Compound 73, (E)-3-(4-(((6-(3,5-bis(trifluoromethyl)benzyl)-5-oxo-5,6,7,8-tetrahydronaphthalen-2-yl)oxy)methyl)phenyl)-N-hydroxyacrylamide]
12 | > 80% | > 80% | > 80% | > 80% | > 80% | > 80% | < 50% | < 50% | < 50% | > 80% | > 80% | > 80% | O=C(/C=C/c1ccc2c(c1)CCCC2NCCc1c[nH]c2ccccc12)NO (stereo not drawn) [Compound 61, (E)-3-(5-((2-(1H-indol-3-yl)ethyl)amino)-5,6,7,8-tetrahydronaphthalen-2-yl)-N-hydroxy acrylamide]
13 | < 50% | 50 to 80% | > 80% | 50 to 80% | > 80% | > 80% | 50 to 80% | 50 to 80% | 50 to 80% | 50 to 80% | > 80% | > 80% | CN(C(=O)OCc1cc(C(F)(F)F)cc(C(F)(F)F)c1)C1CCc2cc(/C=C/C(=O)NO)ccc21 (stereo not drawn) [Compound 64, 3,5-bis(trifluoromethyl)benzyl (E)-(5-(3-(hydroxyamino)-3-oxoprop-1-en-1-yl)-2,3-dihydro-1H-inden-1-yl)(methyl)carbamate]
14 | < 50% | < 50% | 50 to 80% | < 50% | 50 to 80% | 50 to 80% | < 50% | < 50% | < 50% | < 50% | 50 to 80% | > 80% | O=C(CCCCCCC(=O)NC1CCCc2cc(Br)ccc21)NO (stereo not drawn) [Compound 46, N1-(6-bromo-1,2,3,4-tetrahydronaphthalen-1-yl)-N8-hydroxyoctanediamide]
